In patent publication US20110269834A1 (priority 2008, published 2011):
Like-named read-outs stand apart in the source and are kept apart here.

Columns and labels:
SARS-CoV = assay: microbe, parasite or virus in culture; type: cell-based, SARS-CoV Urbani strain
SARS-CoV PLpro [1] = target: T1, SARS-CoV PLpro (Severe acute respiratory syndrome coronavirus, UniProt P0C6X7); assay: biochemical; settings: read-out: percent inhibition of PLpro in primary screen
SARS-CoV PLpro [2] = target: T1, SARS-CoV PLpro; assay: biochemical; settings: for inhibition at 100 µM: read-out: inhibition of PLpro activity
hUCH-L1 = target: T2, hUCH-L1 (Homo sapiens, UniProt P09936); assay: Inhibitor specificity assay, UCH-L1; type: biochemical; settings: Table 6; assayed with 100 μM inhibitor, ubiquitin-AMC substrate
T2 construct: purchased Biomol International
T2 sequence (P09936 1-223): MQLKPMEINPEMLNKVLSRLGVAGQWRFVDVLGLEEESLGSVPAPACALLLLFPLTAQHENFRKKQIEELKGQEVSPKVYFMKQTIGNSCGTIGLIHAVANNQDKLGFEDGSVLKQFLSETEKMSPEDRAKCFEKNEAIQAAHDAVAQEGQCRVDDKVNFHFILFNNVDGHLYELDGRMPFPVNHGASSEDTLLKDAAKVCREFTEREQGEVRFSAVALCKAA

hUCH-L3 = target: T3, hUCH-L3 (Homo sapiens, UniProt P15374); assay: Inhibitor specificity assay, UCH-L3; type: biochemical; settings: Table 6; assayed with 100 μM inhibitor, ubiquitin-AMC substrate
T3 construct: purchased Biomol International
T3 sequence (P15374 1-230): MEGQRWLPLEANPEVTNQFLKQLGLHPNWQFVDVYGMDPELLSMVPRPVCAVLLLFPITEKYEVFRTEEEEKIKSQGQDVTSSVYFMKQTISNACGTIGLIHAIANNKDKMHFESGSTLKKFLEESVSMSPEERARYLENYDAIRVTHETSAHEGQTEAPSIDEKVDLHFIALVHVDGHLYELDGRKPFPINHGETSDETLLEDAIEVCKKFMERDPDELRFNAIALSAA

SARS-CoV PLpro [3] = target: T1, SARS-CoV PLpro; type: biochemical
SARS-CoV PLpro [4] = target: T1, SARS-CoV PLpro; type: biochemical; remark: listed apart in the source
hUSP18 = target: T4, hUSP18 (Homo sapiens, UniProt Q9UMW8); assay: Inhibitor specificity assay, USP18; type: biochemical; settings: Table 6; assayed with 100 μM inhibitor, ISG15-AMC substrate
T4 construct: purchased Boston Biochem
T4 sequence (Q9UMW8 1-372): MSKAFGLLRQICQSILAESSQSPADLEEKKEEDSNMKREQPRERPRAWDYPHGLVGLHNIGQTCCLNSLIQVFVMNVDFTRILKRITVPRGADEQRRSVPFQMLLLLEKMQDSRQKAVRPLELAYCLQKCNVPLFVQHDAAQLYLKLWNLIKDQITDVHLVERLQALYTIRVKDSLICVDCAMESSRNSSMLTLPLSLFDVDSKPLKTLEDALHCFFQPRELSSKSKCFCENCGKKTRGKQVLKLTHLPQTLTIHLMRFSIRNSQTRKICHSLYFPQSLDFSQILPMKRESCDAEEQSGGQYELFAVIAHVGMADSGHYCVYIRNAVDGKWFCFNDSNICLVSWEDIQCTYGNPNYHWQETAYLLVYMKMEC

HAUSP = target: T5, HAUSP (Homo sapiens, UniProt Q93009); assay: Inhibitor specificity assay, HAUSP; type: biochemical; settings: Table 6; assayed with 100 μM inhibitor, ubiquitin-AMC substrate
T5 construct: purchased Boston Biochem
T5 sequence (Q93009 whole entry): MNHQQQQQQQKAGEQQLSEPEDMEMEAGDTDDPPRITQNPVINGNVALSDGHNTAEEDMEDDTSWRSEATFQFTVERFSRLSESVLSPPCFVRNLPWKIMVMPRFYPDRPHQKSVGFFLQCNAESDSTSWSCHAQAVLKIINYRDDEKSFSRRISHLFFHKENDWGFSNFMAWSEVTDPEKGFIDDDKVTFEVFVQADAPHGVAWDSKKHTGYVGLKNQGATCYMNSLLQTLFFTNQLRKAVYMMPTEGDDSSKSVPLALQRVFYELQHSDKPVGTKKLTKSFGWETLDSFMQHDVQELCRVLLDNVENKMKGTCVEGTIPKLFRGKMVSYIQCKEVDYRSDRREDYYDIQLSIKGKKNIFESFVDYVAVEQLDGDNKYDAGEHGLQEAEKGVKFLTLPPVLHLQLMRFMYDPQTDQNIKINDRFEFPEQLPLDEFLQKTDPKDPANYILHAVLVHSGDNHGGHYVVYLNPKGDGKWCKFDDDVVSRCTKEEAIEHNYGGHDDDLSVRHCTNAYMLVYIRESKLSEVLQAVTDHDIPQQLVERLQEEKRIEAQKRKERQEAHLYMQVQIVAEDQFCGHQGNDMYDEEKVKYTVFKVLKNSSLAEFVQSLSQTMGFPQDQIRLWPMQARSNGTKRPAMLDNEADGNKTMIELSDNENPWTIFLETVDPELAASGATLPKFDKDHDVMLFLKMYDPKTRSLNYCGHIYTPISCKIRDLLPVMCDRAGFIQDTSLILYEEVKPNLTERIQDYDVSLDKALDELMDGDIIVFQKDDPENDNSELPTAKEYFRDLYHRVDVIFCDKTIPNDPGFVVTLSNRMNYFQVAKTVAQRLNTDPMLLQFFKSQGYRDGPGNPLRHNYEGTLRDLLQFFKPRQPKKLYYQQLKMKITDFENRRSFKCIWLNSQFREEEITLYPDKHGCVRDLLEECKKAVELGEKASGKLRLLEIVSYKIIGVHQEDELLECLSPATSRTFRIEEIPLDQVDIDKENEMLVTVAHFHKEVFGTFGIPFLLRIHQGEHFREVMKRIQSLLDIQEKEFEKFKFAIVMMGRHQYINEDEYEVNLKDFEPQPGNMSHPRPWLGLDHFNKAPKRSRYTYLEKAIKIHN

[5] = Severe acute respiratory syndrome coronavirus, Vero C1008
[6] = Severe acute respiratory syndrome coronavirus, Vero C1008, 48 h, read-out: EC50 of antiviral activity
[7] = read-out: IC50 (μM), enzyme inhibitory activity

5-Methylamino-2-methyl-N—[(R)-1-(1-naphthyl)ethyl]benzamide [Compound 2]
EC50 (SARS-CoV; Table 5, antiviral activity against SARS-CoV, highest concentration tested 50 uM, read-out: EC50): 6 ± 0.1 µM

Cc1ccccc1C(=O)NC(C)c1ccc2ccccc2c1 (racemic) [Compound 1, 2-methyl-N-[1-(2-naphthyl)ethyl]benzamide]
EC50 (SARS-CoV; [5]): > 50 µM | inhibition at 20 µM (SARS-CoV PLpro [1]): > 35%

CCC(NC(=O)c1ccccc1C)c1ccc2ccccc2c1 (racemic) [Compound 14, 2-Methyl-N-[1-(2-naphthyl)propyl]benzamide]
IC50 (SARS-CoV PLpro [2]): > 200 µM

Cc1ccc(N)cc1C(=O)NC(C)c1ccnc2ccccc12 (racemic) [Compound 50]
IC50 (SARS-CoV PLpro [2]): 1.85 µM

Cc1cc([N+](=O)[O-])ccc1C(=O)NC(C)c1ccnc2ccccc12 (racemic) [Compound 51]
IC50 (SARS-CoV PLpro [2]): 3.5 µM

Cc1cc(N)ccc1C(=O)NC(C)c1ccnc2ccccc12 (racemic) [Compound 52]
IC50 (SARS-CoV PLpro [2]): 2.3 µM

Cc1ccccc1C(=O)N[C@@H](C)c1ccc2ccccc2c1 [Compound 1a]
inhibition at 100 µM (SARS-CoV PLpro [2]): 14%

Cc1ccccc1C(=O)N[C@H](C)c1ccc2ccccc2c1 [Compound 1b, 2-Methyl-N—[(R)-1-(2-naphthyl)ethyl]benzamide]
inhibition at 100 µM (SARS-CoV PLpro [2]): > 90% | EC50 (SARS-CoV; [5]): > 50 µM

C[C@@H](NC(=O)c1ccccc1Cl)c1ccc2ccccc2c1 [Compound 3, 2-Chloro-N—[(R)-1-(2-naphthyl)ethyl]benzamide]
IC50 (SARS-CoV PLpro [2]): 14.5 ± 0.9 µM | fold decrease in inhibitory potency compared to 1b (SARS-CoV PLpro [2]): 2 fold | EC50 (SARS-CoV; [5]): > 50 µM

CCc1ccccc1C(=O)N[C@H](C)c1ccc2ccccc2c1 [Compound 4, 2-Ethyl-N—[(R)-1-(2-naphthyl)ethyl]benzamide]
IC50 (SARS-CoV PLpro [2]): > 200 µM

Cc1cccc(C(=O)N[C@H](C)c2ccc3ccccc3c2)c1 [Compound 5a, 3-Methyl-N—[(R)-1-(2-naphthyl)ethyl]benzamide]
EC50 (SARS-CoV; [5]): > 50 µM

C[C@@H](NC(=O)c1ccccc1O)c1ccc2ccccc2c1 [Compound 5g, 2-Hydroxy-N—[(R)-1-(2-naphthyl)ethyl]benzamide]
IC50 (SARS-CoV PLpro [2]): > 200 µM

Cc1ccccc1C(=O)N[C@H](C)c1cccc2ccccc12 [Compound 5h, 2-Methyl-N—[(R)-1-(1-naphthyl)ethyl]benzamide]
IC50 (hUCH-L1): > 100 µM | EC50 (SARS-CoV; [5]): 10 ± 1.2 µM | EC50 (SARS-CoV; [6]): 10 to 15 µM | IC50 (hUCH-L3): > 100 µM | toxicity in Vero E6 cells (Vero E6 cells): without toxicity up to the highest concentration tested

Cc1ccc([N+](=O)[O-])cc1C(=O)N[C@H](C)c1cccc2ccccc12 [Compound 5i, 2-Methyl-5-nitro-N—[(R)-1-(1-naphthyl)ethyl]benzamide]
IC50 (SARS-CoV PLpro [2]): 7.3 ± 0.9 µM | fold decrease in activity compared to 5h (SARS-CoV PLpro [2]): ~3 fold | EC50 (SARS-CoV; [5]): > 50 µM

C[C@@H](NC(=O)c1ccc(NC(=O)OC(C)(C)C)cc1)c1ccc2ccccc2c1 [Compound 8, 4-N^0-tert-Butoxycarbonylamino-N—[(R)-1-(2-naphthyl)ethyl]-benzamide]
IC50 (SARS-CoV PLpro [2]): > 200 µM

Cc1ccccc1C(=O)NC(c1ccccc1)c1ccc2ccccc2c1 (stereo not shown) [Compound 17, 2-Methyl-N-[1-(2-naphthyl)benzyl]benzamide]
IC50 (SARS-CoV PLpro [2]; [7]): > 200 µM

Cc1ccc(N)cc1C(=O)N[C@H](C)c1cccc2ccccc12 [Compound 24, 5-Amino-2-methyl-N—[(R)-1-(1-naphthyl)ethyl]benzamide]
IC50 (hUCH-L1): > 100 µM | PLpro activity recovered after dialysis (SARS-CoV PLpro [3]): Approximately 25% | mode of inhibition (SARS-CoV PLpro [4]): competitive inhibitor | IC50 (hUCH-L3): > 100 µM | IC50 (hUSP18): > 100 µM | toxicity in Vero E6 cells (Vero E6 cells): without toxicity up to the highest concentration tested | IC50 (HAUSP): > 100 µM

CC(=O)Nc1ccc(C)c(C(=O)N[C@H](C)c2cccc3ccccc23)c1 [Compound 25, 5-N-Acetylamino-2-methyl-N—[(R)-1-(1-naphthyl)ethyl]benzamide]
IC50 (hUCH-L1): > 100 µM | IC50 (SARS-CoV PLpro [2]; read-out: IC50): 2.64 ± 0.04 µM | IC50 (SARS-CoV PLpro [2]; [7]): 2.64 ± 0.04 µM | IC50 (SARS-CoV PLpro [2]; read-out: IC50 values (μM) PLpro): 2.6 µM | EC50 (SARS-CoV; [5]): 13.1 ± 0.7 µM | EC50 (SARS-CoV; [6]): 10 to 15 µM | IC50 (hUCH-L3): > 100 µM | toxicity in Vero E6 cells (Vero E6 cells): without toxicity up to the highest concentration tested

Cc1ccc(N)cc1C(=O)NC(C)(C)c1cccc2ccccc12 [Compound 29, 5-Amino-2-methyl-N-[1-methyl-1-(1-naphthyl)ethyl]benzamide]
EC50 (SARS-CoV; [5]): > 50 µM

Cc1ccc(CNC(=O)OC(C)(C)C)cc1C(=O)N[C@H](C)c1cccc2ccccc12 [Compound 47, 5-N-tert-Butoxycarbonylmethylamino-2-methyl-N^0—[(R)-1-(1-naphthyl)ethyl]benzamide]
EC50 (SARS-CoV; [5]): > 50 µM

CNCc1ccc(C)c(C(=O)N[C@H](C)c2cccc3ccccc23)c1 [Compound 49]
EC50 (SARS-CoV; [5]): 5.2 ± 0.3 µM

COc1cccc(CNC(=O)C2CCN([C@@H](C)c3ccc4ccccc4c3)CC2)c1 [Compound 61]
IC50 (SARS-CoV PLpro [2]): 13.2 ± 0.6 µM | EC50 (SARS-CoV; [5]): 12 µM

COc1cccc(CNC(=O)C2CCN([C@H](C)c3ccc4ccccc4c3)CC2)c1 [Compound 62]
IC50 (SARS-CoV PLpro [2]): 5.8 ± 0.1 µM

COc1ccc(CNC(=O)C2CCN([C@H](C)c3cccc4ccccc34)CC2)cc1 [Compound 63]
IC50 (SARS-CoV PLpro [2]; read-out: IC50): 0.34 µM | EC50 (SARS-CoV; [5]): 10 µM

COc1cccc(CNC(=O)C2CCN([C@H](C)c3cccc4ccccc34)CC2)c1 [Compound 64]
IC50 (SARS-CoV PLpro [2]; read-out: IC50): 0.34 µM | EC50 (SARS-CoV; [5]): 8 µM

COc1ccccc1CNC(=O)C1CCN([C@H](C)c2cccc3ccccc23)CC1 [Compound 67]
IC50 (SARS-CoV PLpro [2]; read-out: IC50): 1.21 ± 0.04 µM

C[C@@H](c1cccc2ccccc12)N1CCC(C(=O)NCc2ccc3c(c2)OCO3)CC1 [Compound 68]
IC50 (SARS-CoV PLpro [2]; read-out: IC50): 0.56 µM | EC50 (SARS-CoV; [5]): 3 µM

C[C@H](c1cccc2ccccc12)N1CCC(C(=O)NCc2ccc3c(c2)OCO3)CC1 [Compound 69]
EC50 (SARS-CoV; [5]): 3 µM
